Experimental data reported in US20150105252A1, “SUBSTITUTED PYRAZOLES AS HERBICIDES” (E I DU PONT DE NEMOURS AND COMPANY, priority 2013, published 2015).

Key:
Italian ryegrass = assay: Test A preemergence; assay type: in vivo, Lolium multiflorum
Outline: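 Growth medium: loam soil blended with sand. Preemergence treatment used a directed soil spray right after planting; postemergence treatment targeted seedlings at one to two leaves (2–10 cm height). Response was judged by eye relative to untreated plants about 10 days later on a 0–100 control scale.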

cocklebur = assay: Test C postemergence; assay type: in vivo, Xanthium strumarium; details: for Cocklebur plant response rating: scale 0 to 100
From the text: (§1) Seeds of plant species selected from blackgrass (Alopecurus myosuroides), ryegrass, Italian (Italian ryegrass, Lolium multiflorum), wheat (winter wheat, Triticum aestivum), galium (catchweed bedstraw, Galium aparine), corn (Zea mays), crabgrass, large (large crabgrass, Digitaria sanguinalis), foxtail, giant (giant foxtail, Setaria faberii), johnsongrass (Sorghum halepense), lambsquarters (Chenopodium album), morningglory (Ipomoea coccinea), nutsedge, yellow (yellow nutsedge, Cyperus esculentus), pigweed (redroot pigweed, Amaranthus retroflexus), ragweed (common ragweed, Ambrosia elation), soybean (Glycine max), barnyardgrass (Echinochloa crus-galli), oilseed rape (Brassica napus), waterhemp (common waterhemp, Amaranthus rudis), oat, wild (wild oat, Avena fatua), kochia (Kochia scoparia), Surinam grass (Brachiaria decumbens), foxtail, green (green foxtail, Setaria viridis), goosegrass (Eleusine indica), bromegrass, downy (downy bromegrass, Bromus tectorum), nightshade (eastern black nightshade, Solanum ptycanthum), cocklebur (common cocklebur, Xanthium strumarium), cupgrass, woolly (woolly cupgrass, Eriochloa villosa), bermudagrass (Cynodon dactylon), sunflower, (common oilseed sunflower, Helianthus annuus), Russian thistle (Salsola kali), and velvetleaf (Abutilon theophrasti) were planted into a blend of loam soil and sand and treated preemergence with test chemicals formulated in a non-phytotoxic solvent mixture which included a surfactant.
(§2) At the same time, plants selected from these crop and weed species and also chickweed (common chickweed, Stellaria media), canarygrass (littleseed canarygrass, Phalaris minor), and deadnettle (henbit deadnettle, Lamium amplexicaule), were planted in pots containing Redi-Earth® planting medium (Scotts Company, 14111 Scottslawn Road, Marysville, Ohio 43041) comprising spaghnum peat moss, vermiculite, wetting agent and starter nutrients and treated with postemergence applications of test chemicals formulated in the same manner. Plants ranged in height from 2 to 18 cm (1- to 4-leaf stage) for postemergence treatments. Treated plants and controls were maintained in a greenhouse for 13 to 15 days, after which time all species were compared to controls and visually evaluated. Plant response ratings, summarized in Table C, are based on a scale of 0 to 100 where 0 is no effect and 100 is complete control. A dash (-) response means no test result.

Surinam grass [1] = assay: Test C preemergence; assay type: in vivo, Brachiaria decumbens; details: for Plant response rating (scale of 0 to 100), Surinam Grass: Preemergence, 250 g ai/ha; for Surinam Grass plant response rating / Plant response rating, Surinam Grass: preemergence; for Plant response rating, Surinam Grass: 62 g ai/ha, scale 0 to 100, 0 = no effect, 100 = complete control
From the text: as §1, §2

goosegrass = assay: Test C preemergence; assay type: in vivo, Eleusine indica; details: for Plant response rating (scale of 0 to 100), Goosegrass: Preemergence, 250 g ai/ha; for Goosegrass plant response rating / Plant response rating, Goosegrass: preemergence; for Plant response rating, Goosegrass: 62 g ai/ha, scale 0 to 100, 0 = no effect, 100 = complete control
From the text: as §1, §2

common ragweed = assay: Test F preemergence; assay type: in vivo, Ambrosia elation
From the text: (§3) Seeds of plant species selected from corn (Zea mays), soybean (Glycine max), velvetleaf (Abutilon theophrasti), lambsquarters (Chenopodium album), wild poinsettia (Euphorbia heterophylla), pigweed, palmer (palmer pigweed, Amaranthus palmeri), common waterhemp (Amaranthus rudis), surinam grass (Brachiaria decumbens), large crabgrass (Digitaria sanguinalis), crabgrass, Brazil (Brazilian crabgrass, Digitaria horizontalis), fall panicum (Panicum dichotomiflorum), giant foxtail (Setaria faberii), green foxtail (Setaria viridis), goosegrass (Eleusine indica), johnsongrass (Sorghum halepense), common ragweed (Ambrosia elation), barnyardgrass (Echinochloa crus-galli), southern sandbur (Cenchrus echinatus), arrowleaf sida (Sida rhombifolia), Italian ryegrass (Lolium multiflorum), dayflower, VA (Virginia (VA) dayflower, Commelina virginica), field bindweed (Convolvulus arvensis), cocklebur (common cocklebur, Xanthium strumarium), morningglory (Ipomoea coccinea), nightshade (eastern black nightshade, Solanum ptycanthum), kochia (Kochia scoparia), yellow nutsedge (Cyperus esculentus), and hairy beggarticks (Bidens pilosa), were planted into a silt loam soil and treated preemergence with test chemicals formulated in a non-phytotoxic solvent mixture which included a surfactant.
(§4) At the same time, plants from these crop and weed species and also horseweed (Canada horseweed, Conyza canadensis), smartweed (ladysthumb smartweed, Polygonum persicaria), waterhemp_RES1, (ALS & Triazine resistant common waterhemp, Amaranthus rudis), and waterhemp_RES2, (ALS & HPPD resistant common waterhemp, Amaranthus rudis) were treated with postemergence applications of test chemicals formulated in the same manner. Plants ranged in height from 2 to 18 cm for postemergence treatments (1- to 4-leaf stage). Treated plants and controls were maintained in a greenhouse for 14 to 21 days, after which time all species were compared to controls and visually evaluated. Plant response ratings, summarized in Table F, are based on a scale of 0 to 100 where 0 is no effect and 100 is complete control. A dash (-) response means no test result.

Surinam grass [2] = assay: Test F preemergence; assay type: in vivo, Brachiaria decumbens
From the text: as §3, §4

wild poinsettia = assay: Test F preemergence; assay type: in vivo, Euphorbia heterophylla
From the text: as §3, §4

johnsongrass = assay: Test F preemergence; assay type: in vivo, Sorghum halepense
From the text: as §3, §4

nightshade = assay: Test F preemergence; assay type: in vivo, Solanum ptycanthum
From the text: as §3, §4

[3] = 125 g ai/ha, visual injury, 0 to 100 scale, approx. 10 days
[4] = 500 g ai/ha, visual injury after approx. 10 days, 0 to 100 scale (0 no effect, 100 complete control)
[5] = postemergence, 250 g ai/ha, scale 0 to 100 (0 no effect, 100 complete control)
[6] = postemergence, 125 g ai/ha, scale 0 to 100, 0 no effect, 100 complete control
[7] = 31 g ai/ha, scale 0 to 100 (0 no effect, 100 complete control), 13 to 15 days
[8] = 125 g ai/ha, scale 0 to 100, 0 is no effect, 100 is complete control
[9] = postemergence, 62 g ai/ha, scale 0 to 100, 0 no effect, 100 complete control
[10] = Preemergence, 31 g ai/ha, scale 0 to 100
[11] = Preemergence, 62 g ai/ha, scale 0 to 100
[12] = Preemergence, 125 g ai/ha, scale 0 to 100
[13] = preemergence, 8 g ai/ha, scale 0 to 100, 100 is complete control
[14] = preemergence, 16 g ai/ha, scale 0 to 100, 100 is complete control
[15] = Preemergence, 250 g ai/ha, scale 0 to 100

CCOc1cc(C(=O)NCC(F)(F)F)nn1Cc1ccnc(OC(F)F)c1 [Compound 128]
Italian Ryegrass plant response rating (Italian ryegrass; [3]): 30
Italian Ryegrass plant response rating (Italian ryegrass; [4]): 100

CCCc1cc(C(=O)NC2CC2)nn1Cc1ccnc(OC(F)F)c1 [Compound 205]
Italian Ryegrass plant response rating (0 to 100 scale) (Italian ryegrass; 125 g ai/ha, visual injury approx. 10 days after treatment): 50
Italian Ryegrass plant response rating (Italian ryegrass; [4]): 100

Cc1cc(C(=O)NCC(F)(F)F)nn1Cc1ccnc(C(F)(F)F)c1 [Compound 74]
Cocklebur plant response rating (cocklebur; Postemergence, 31 g ai/ha): 20
Cocklebur plant response rating (cocklebur; postemergence, 62 g ai/ha): 20
Plant response rating, Cocklebur (cocklebur; [5]): 55
Plant response rating, Cocklebur (cocklebur; [6]): 50
Plant response rating (scale of 0 to 100), Surinam Grass (Surinam grass [1]): 100
Surinam Grass plant response rating (Surinam grass [1]; [7]): 15
Plant response rating, Surinam Grass (Surinam grass [1]; 13 to 15 days): 50
Surinam Grass plant response rating (Surinam grass [1]; [8]): 85
Plant response rating (scale of 0 to 100), Goosegrass (goosegrass): 100
Goosegrass plant response rating (goosegrass; [7]): 75
Plant response rating, Goosegrass (goosegrass; 13 to 15 days): 85
Goosegrass plant response rating (goosegrass; [8]): 100

CCc1cc(C(=O)NOC(C)C)nn1Cc1ccnc(OC(F)F)c1 [Compound 126]
Italian Ryegrass plant response rating (Italian ryegrass; [3]): 90
Italian Ryegrass plant response rating (Italian ryegrass; [4]): 100

CCCNC(=O)c1cc(CC)n(Cc2cccc(OC(F)(F)F)c2)n1 [Compound 27]
Cocklebur plant response rating (cocklebur; Postemergence, 31 g ai/ha): 20
Plant response rating, Cocklebur (cocklebur; [5]): 40
Plant response rating, Cocklebur (cocklebur; [9]): 25
Plant response rating, Cocklebur (cocklebur; [6]): 35

CCONC(=O)c1cc(CC)n(Cc2cccc(OC(F)(F)F)c2)n1 [Compound 72]
Cocklebur plant response rating (cocklebur; Postemergence, 31 g ai/ha): 0
Cocklebur plant response rating (cocklebur; postemergence, 62 g ai/ha): 0
Plant response rating, Cocklebur (cocklebur; [5]): 15
Plant response rating, Cocklebur (cocklebur; [6]): 5
Plant response rating (scale of 0 to 100), Surinam Grass (Surinam grass [1]): 75
Surinam Grass plant response rating (Surinam grass [1]; [7]): 10
Plant response rating, Surinam Grass (Surinam grass [1]; 13 to 15 days): 15
Surinam Grass plant response rating (Surinam grass [1]; [8]): 65
Plant response rating (scale of 0 to 100), Goosegrass (goosegrass): 98
Goosegrass plant response rating (goosegrass; [7]): 75
Plant response rating, Goosegrass (goosegrass; 13 to 15 days): 98
Goosegrass plant response rating (goosegrass; [8]): 98

CCCNC(=O)c1cc(OCC)n(Cc2ccnc(OC(F)F)c2)n1 [Compound 136]
Italian Ryegrass plant response rating (Italian ryegrass; [3]): 30
Italian Ryegrass plant response rating (Italian ryegrass; [4]): 100

CCc1cc(C(=O)NOC(C)C)nn1Cc1cccc(OC(F)(F)F)c1 [Compound 70]
Cocklebur plant response rating (cocklebur; Postemergence, 31 g ai/ha): 10
Plant response rating, Cocklebur (cocklebur; [5]): 45
Plant response rating, Cocklebur (cocklebur; [9]): 15
Plant response rating, Cocklebur (cocklebur; [6]): 20
Plant response rating (scale of 0 to 100), Surinam Grass (Surinam grass [1]): 85
Surinam Grass plant response rating (Surinam grass [1]; [7]): 5
Plant response rating, Surinam Grass (Surinam grass [1]; 13 to 15 days): 25
Surinam Grass plant response rating (Surinam grass [1]; [8]): 65
Plant response rating (scale of 0 to 100), Goosegrass (goosegrass): 98
Goosegrass plant response rating (goosegrass; [7]): 60
Plant response rating, Goosegrass (goosegrass; 13 to 15 days): 80
Goosegrass plant response rating (goosegrass; [8]): 95

CCc1cc(C(=O)NCC(F)(F)F)nn1Cc1cccc(OC(F)(F)F)c1 [Compound 20]
Cocklebur plant response rating (cocklebur; Postemergence, 31 g ai/ha): 20
Plant response rating, Cocklebur (cocklebur; [5]): 40
Plant response rating, Cocklebur (cocklebur; [9]): 35
Plant response rating, Cocklebur (cocklebur; [6]): 35

CCCc1cc(C(=O)NCC(F)(F)F)nn1Cc1ccnc(OC(F)F)c1 [Compound 127]
Italian Ryegrass plant response rating (Italian ryegrass; [3]): 40
Italian Ryegrass plant response rating (Italian ryegrass; [4]): 90

CCc1cc(-c2ccc(C(F)(F)F)cc2)nn1Cc1ccnc(C(F)(F)F)c1 [Compound 110]
Plant response rating, Common Ragweed (common ragweed; [10]): 25
Plant response rating, Common Ragweed (common ragweed; [11]): 80
Plant response rating, Common Ragweed (common ragweed; [12]): 90
Plant response rating, Common Ragweed (common ragweed; [13]): 0
Plant response rating, Common Ragweed (common ragweed; [14]): 0
Plant response rating, Surinam Grass (Surinam grass [2]; [10]): 5
Plant response rating, Surinam Grass (Surinam grass [2]; [11]): 5
Plant response rating, Surinam Grass (Surinam grass [2]; [12]): 10
Plant response rating, Surinam Grass (Surinam grass [2]; [13]): 0
Plant response rating, Surinam Grass (Surinam grass [2]; [14]): 0
Plant response rating, Wild Poinsettia (wild poinsettia; [10]): 35
Plant response rating, Wild Poinsettia (wild poinsettia; [11]): 50
Plant response rating, Wild Poinsettia (wild poinsettia; [12]): 80
Plant response rating, Wild Poinsettia (wild poinsettia; [13]): 25
Plant response rating, Wild Poinsettia (wild poinsettia; [14]): 25
Plant response rating, Johnsongrass (johnsongrass; [10]): 15
Plant response rating, Johnsongrass (johnsongrass; [11]): 25
Plant response rating, Johnsongrass (johnsongrass; [12]): 80
Plant response rating, Johnsongrass (johnsongrass; [13]): 0
Plant response rating, Johnsongrass (johnsongrass; [14]): 0
Plant response rating, Nightshade (nightshade; [10]): 80
Plant response rating, Nightshade (nightshade; [11]): 85
Plant response rating, Nightshade (nightshade; [12]): 95
Plant response rating, Nightshade (nightshade; [13]): 50
Plant response rating, Nightshade (nightshade; [14]): 65

CCc1cc(C(=O)NCC(F)(F)F)nn1Cc1ccnc(Br)c1 [Compound 224]
Plant response rating, Common Ragweed (common ragweed; [11]): 0
Plant response rating, Common Ragweed (common ragweed; [12]): 0
Plant response rating, Common Ragweed (common ragweed; [15]): 60
Plant response rating, Surinam Grass (Surinam grass [2]; [11]): 70
Plant response rating, Surinam Grass (Surinam grass [2]; [12]): 50
Plant response rating, Surinam Grass (Surinam grass [2]; [15]): 65
Plant response rating, Wild Poinsettia (wild poinsettia; [11]): 60
Plant response rating, Wild Poinsettia (wild poinsettia; [12]): 65
Plant response rating, Wild Poinsettia (wild poinsettia; [15]): 85
Plant response rating, Johnsongrass (johnsongrass; [11]): 0
Plant response rating, Johnsongrass (johnsongrass; [12]): 35
Plant response rating, Johnsongrass (johnsongrass; [15]): 75
Plant response rating, Nightshade (nightshade; [12]): 0
Plant response rating, Nightshade (nightshade; [15]): 95
